This experiment is described as follows: Inhibition of EGFR in human A-431 cells assessed as antiproliferative activity incubated for 48 hrs by MTS method. (Tetrazolium dyes change colour on reduction, which living cells bring about.)

As a reminder, the IC50 is the concentration that gives 50% inhibition. As for `COc1cc2c(Nc3ccc(Br)cc3F)ncnc2cc1OCC1CCN(C(=O)Cn2cncc2[N+](=O)[O-])CC1`, the IC50 amounted to 1640 nM.

The values above are taken from BindingDB's records for doi:10.1016/j.ejmech.2020.112994 (North-West University, 2021).
